AC50 data for six compounds are collected here from ChEMBL document CHEMBL5291721, “A preclinical secondary pharmacology resource illuminates target-adverse drug reaction associations of marketed drugs” (Nat Commun, 2023).

Test [1] has as its target T1, Estrogen receptor (Homo sapiens, UniProt P03372).
T1 sequence (P03372 whole entry): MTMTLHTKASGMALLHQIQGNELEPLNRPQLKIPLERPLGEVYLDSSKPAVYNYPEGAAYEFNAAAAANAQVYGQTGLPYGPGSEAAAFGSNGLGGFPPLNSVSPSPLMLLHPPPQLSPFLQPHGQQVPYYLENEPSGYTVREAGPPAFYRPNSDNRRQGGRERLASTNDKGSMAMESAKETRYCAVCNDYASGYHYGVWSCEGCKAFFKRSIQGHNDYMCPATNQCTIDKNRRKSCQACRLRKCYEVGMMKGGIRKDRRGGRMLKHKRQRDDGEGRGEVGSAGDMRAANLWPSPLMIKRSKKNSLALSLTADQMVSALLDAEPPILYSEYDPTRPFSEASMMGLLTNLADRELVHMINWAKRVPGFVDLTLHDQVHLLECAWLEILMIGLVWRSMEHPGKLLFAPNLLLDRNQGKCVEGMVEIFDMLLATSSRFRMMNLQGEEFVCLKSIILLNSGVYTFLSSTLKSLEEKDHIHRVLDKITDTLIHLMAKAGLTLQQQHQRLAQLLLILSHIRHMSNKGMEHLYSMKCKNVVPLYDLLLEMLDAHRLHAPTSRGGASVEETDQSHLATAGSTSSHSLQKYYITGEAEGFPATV

Test [2] concerns the target T2, Muscarinic acetylcholine receptor M1 (Homo sapiens, UniProt P11229).
T2 sequence (P11229 whole entry): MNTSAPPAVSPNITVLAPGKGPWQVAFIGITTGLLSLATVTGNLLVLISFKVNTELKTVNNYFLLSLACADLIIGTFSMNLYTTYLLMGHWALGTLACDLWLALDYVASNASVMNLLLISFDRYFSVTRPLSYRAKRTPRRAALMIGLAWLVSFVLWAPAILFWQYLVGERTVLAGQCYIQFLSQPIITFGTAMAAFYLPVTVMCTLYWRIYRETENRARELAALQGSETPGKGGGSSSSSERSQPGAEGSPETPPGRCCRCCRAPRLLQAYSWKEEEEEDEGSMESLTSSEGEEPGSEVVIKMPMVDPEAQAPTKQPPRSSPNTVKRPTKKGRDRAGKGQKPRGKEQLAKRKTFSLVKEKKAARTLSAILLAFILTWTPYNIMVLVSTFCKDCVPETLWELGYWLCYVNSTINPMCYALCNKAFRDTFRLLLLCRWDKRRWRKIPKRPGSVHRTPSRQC
The test is classed as functional, cell-based.

For test [3], the target named is D(3) dopamine receptor (Homo sapiens, UniProt P35462).
For test [4], the target named is Neuronal acetylcholine receptor subunit alpha-4 (Homo sapiens, UniProt P43681).
Test [5] has as its target Beta-2 adrenergic receptor (Homo sapiens, UniProt P07550).
The target of test [6] is T3, Equilibrative nucleoside transporter 1 (Homo sapiens, UniProt Q99808).
T3 sequence (Q99808 whole entry): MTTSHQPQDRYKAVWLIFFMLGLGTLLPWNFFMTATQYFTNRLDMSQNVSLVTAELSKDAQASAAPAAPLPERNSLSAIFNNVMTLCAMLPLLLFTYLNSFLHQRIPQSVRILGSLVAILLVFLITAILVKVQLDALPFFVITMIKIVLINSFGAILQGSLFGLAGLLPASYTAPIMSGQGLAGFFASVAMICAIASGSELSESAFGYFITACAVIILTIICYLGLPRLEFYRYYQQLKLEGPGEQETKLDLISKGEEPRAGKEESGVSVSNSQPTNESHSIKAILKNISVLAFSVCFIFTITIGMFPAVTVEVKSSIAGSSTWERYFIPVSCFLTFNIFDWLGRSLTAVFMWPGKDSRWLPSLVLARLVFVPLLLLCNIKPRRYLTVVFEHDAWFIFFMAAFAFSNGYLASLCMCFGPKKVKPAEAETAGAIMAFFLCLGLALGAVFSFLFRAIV

In test [7] the target is T4, Adenosine receptor A1 (Homo sapiens, UniProt P30542).
T4 sequence (P30542 whole entry): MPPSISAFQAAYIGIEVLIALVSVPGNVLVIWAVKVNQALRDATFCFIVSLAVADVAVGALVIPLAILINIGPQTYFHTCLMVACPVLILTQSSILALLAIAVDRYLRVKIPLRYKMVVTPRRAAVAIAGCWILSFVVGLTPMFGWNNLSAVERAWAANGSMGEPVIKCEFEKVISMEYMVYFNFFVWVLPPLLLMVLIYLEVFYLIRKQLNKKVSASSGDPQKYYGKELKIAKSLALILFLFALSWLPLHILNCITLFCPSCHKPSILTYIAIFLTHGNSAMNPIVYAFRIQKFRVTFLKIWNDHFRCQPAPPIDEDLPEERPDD

For test [8], the target named is Growth hormone secretagogue receptor type 1 (Homo sapiens, UniProt Q92847).
The target in test [9] is T5, B2 bradykinin receptor (Homo sapiens, UniProt P30411).
T5 sequence (P30411 whole entry): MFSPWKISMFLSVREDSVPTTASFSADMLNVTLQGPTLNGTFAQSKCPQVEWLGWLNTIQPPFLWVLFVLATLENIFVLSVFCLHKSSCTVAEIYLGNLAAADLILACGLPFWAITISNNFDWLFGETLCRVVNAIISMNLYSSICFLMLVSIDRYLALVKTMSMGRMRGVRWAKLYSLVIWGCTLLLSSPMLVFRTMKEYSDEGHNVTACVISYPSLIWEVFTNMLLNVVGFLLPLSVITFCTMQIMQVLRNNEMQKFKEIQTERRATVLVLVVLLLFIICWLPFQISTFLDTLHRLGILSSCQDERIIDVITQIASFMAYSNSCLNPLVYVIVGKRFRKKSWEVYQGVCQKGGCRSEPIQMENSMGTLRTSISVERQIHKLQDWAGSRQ

Test [10] addresses Histamine H3 receptor (Homo sapiens, UniProt Q9Y5N1).
In test [11] the target is T6, Adenosine receptor A3 (Homo sapiens, UniProt P0DMS8).
T6 sequence (P0DMS8 whole entry): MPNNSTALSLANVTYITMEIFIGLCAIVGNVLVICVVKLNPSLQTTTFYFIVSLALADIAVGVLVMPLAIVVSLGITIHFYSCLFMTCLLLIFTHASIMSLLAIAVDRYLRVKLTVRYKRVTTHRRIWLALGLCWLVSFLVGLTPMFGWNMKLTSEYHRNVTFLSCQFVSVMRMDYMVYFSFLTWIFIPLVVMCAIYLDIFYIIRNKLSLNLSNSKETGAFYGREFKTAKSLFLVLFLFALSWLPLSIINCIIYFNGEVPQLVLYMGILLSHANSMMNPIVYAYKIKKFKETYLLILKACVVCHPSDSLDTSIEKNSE

SMILES strings stand for the structures.
Note: assay procedure not described here.

Chain of Histamine H3 receptor (Q9Y5N1 whole entry): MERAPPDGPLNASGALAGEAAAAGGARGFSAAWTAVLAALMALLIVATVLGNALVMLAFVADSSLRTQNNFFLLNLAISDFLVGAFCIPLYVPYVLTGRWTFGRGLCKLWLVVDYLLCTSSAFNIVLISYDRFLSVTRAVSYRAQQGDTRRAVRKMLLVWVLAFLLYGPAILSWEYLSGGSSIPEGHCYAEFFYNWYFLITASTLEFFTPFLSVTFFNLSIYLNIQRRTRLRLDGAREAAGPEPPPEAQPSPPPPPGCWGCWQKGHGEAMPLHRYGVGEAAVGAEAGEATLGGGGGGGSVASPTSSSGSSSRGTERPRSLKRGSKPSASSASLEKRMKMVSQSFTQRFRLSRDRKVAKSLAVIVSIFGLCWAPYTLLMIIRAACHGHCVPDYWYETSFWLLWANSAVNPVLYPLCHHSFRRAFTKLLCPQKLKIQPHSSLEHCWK
Chain of D(3) dopamine receptor (P35462 whole entry): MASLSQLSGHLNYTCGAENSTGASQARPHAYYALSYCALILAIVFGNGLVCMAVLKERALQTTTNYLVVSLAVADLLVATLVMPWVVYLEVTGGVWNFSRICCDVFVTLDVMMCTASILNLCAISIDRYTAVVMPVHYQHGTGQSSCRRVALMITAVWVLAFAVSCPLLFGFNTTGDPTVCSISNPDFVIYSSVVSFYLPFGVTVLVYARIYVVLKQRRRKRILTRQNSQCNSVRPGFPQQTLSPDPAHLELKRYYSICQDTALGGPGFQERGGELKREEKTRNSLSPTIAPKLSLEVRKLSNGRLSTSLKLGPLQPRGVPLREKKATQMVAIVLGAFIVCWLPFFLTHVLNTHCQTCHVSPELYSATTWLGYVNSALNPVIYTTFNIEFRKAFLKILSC
Chain of Growth hormone secretagogue receptor type 1 (Q92847 whole entry): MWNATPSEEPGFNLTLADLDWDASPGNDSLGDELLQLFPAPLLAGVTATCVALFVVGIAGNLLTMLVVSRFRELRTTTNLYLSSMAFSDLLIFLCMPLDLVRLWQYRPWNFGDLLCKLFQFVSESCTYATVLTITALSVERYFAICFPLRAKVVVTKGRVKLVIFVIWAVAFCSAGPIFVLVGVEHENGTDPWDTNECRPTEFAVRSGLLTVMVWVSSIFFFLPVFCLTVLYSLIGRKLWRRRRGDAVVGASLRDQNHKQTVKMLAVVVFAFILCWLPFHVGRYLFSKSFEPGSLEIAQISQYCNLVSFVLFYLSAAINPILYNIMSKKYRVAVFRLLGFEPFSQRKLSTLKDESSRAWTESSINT
Chain of Beta-2 adrenergic receptor (P07550 whole entry): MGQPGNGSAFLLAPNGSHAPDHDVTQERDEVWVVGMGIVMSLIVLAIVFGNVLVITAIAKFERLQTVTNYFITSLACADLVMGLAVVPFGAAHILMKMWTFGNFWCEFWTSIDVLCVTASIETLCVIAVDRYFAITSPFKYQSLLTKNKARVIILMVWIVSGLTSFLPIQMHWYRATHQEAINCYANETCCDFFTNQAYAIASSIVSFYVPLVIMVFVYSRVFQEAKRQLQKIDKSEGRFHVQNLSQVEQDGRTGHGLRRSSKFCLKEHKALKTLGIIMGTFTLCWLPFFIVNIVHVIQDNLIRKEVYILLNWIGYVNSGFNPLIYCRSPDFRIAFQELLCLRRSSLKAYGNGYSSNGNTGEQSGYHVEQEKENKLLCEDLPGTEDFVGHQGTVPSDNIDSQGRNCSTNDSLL
Chain of Neuronal acetylcholine receptor subunit alpha-4 (P43681 whole entry): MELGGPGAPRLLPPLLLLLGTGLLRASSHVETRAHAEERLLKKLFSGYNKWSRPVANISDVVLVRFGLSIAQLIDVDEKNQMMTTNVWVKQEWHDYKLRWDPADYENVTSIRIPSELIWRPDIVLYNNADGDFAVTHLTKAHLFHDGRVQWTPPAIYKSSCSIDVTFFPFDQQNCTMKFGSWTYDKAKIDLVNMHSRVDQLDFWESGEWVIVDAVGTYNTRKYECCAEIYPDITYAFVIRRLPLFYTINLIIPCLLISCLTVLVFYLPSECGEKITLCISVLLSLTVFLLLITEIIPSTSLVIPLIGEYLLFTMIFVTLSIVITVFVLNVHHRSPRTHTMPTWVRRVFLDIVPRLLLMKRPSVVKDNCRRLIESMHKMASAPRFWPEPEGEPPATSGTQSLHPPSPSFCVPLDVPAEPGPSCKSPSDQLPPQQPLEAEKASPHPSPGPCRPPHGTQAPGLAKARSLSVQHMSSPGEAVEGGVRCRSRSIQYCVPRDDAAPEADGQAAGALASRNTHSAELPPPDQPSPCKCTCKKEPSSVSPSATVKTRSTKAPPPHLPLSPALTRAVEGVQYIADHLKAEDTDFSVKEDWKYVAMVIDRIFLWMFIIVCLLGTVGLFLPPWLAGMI

For orientation: AC50 means the concentration giving half of the maximal activity seen. A higher AC50 goes with activity only at high concentration. For the compound `C[N+](C)(C)CCOP(=O)(O)OP(=O)([O-])OC[C@H]1O[C@@H](n2ccc(N)nc2=O)[C@H](O)[C@@H]1O` [CITICOLINE], the AC50 in test [1], in [2] and in test [3] was above 30 µM each time.

`O=C(O)Cc1ccccc1Oc1ccc(Cl)cc1Cl` [FENCLOFENAC]: the AC50 in test [4] is above 10 µM; in [5], above 10 µM; in test [6], above 30 µM; in [1], above 30 µM; in test [7], above 30 µM; in test [8], above 30 µM. The AC50 in [9] is above 30 µM; in test [2] it was 23.6 µM; in test [10], above 10 µM; in test [3] it was above 10 µM; in [11], above 30 µM.

As for `COc1ccccc1OC1(C)OC(=O)c2ccccc2O1` (stereo unspecified) [GUAIMESAL], the AC50 in test [4], in test [5], in [6], in test [1], in [7] and in test [8] was above 30 µM in each case. The concentration at half-maximal activity (AC50) in test [9], in test [2], in [10] and in test [11] was above 30 µM in each case.

On to `COc1cc(C(C)=O)ccc1OCCCN1CCC(c2noc3cc(F)ccc23)CC1` [ILOPERIDONE], for which the AC50 in test [4] was 2 µM; in test [5] it was above 10 µM; in test [6], above 30 µM; in [1], above 30 µM; in test [7] it was above 30 µM; in test [8] it was above 30 µM. Moreover, the AC50 in test [2] was above 10 µM; in test [10], above 30 µM; in test [3], 0.0373 µM; in test [11], above 30 µM.

Take `Cc1ccsc1C(=CCCN1CCC[C@@H](C(=O)O)C1)c1sccc1C` [TIAGABINE]: the concentration at half-maximal activity (AC50) in test [1] and in [2] was above 30 µM throughout.

Consider `O=C1Cc2cc(CCN3CCN(c4nsc5ccccc45)CC3)c(Cl)cc2N1` [ZIPRASIDONE], for which the AC50 was above 10 µM in [4]; above 30 µM in [5]; above 30 µM in test [6]; above 30 µM in test [1]; above 30 µM in test [7]; above 30 µM in [8]. Further, the AC50 is above 30 µM in test [9], 12.9 µM in test [2], above 30 µM in test [10] and above 30 µM in test [11].
